Measurements taken from paper PMC9867526, “Drug Metabolism of Hepatocyte-like Organoids and Their Applicability in In Vitro Toxicity Testing” (Molecules, 2023).

Key:
HepaRG = assay: Cytotoxicity (CellTiter-Glo ATP viability) in HepaRG cells, 48 h exposure; assay type: cell-based; conditions: Homo sapiens
Protocol: Undifferentiated HepaRG cells were purchased from Biopredic International (Saint Grégoire, France). Cells were cultured (passage number between p18 and p28) in T75 flasks in culture medium consisting of William’s E medium (without phenol red; Thermo Fisher Scientific, Waltham, MA, USA) supplemented with 1% (v/v) penicillin-streptomycin (Thermo Fisher Scientific), 10% (v/v) fetal bovine serum (FBS; Thermo Fisher Scientific), 50 µM hydrocortisone 21-hemisuccinate (Sigma-Aldrich, St Louis, MO, USA), 2 mM GlutaMax (Thermo Fisher Scientific) and 5 µg/mL insulin (Sigma-Aldrich). For differentiation, cells were cultured for 7–10 days and upon confluence, the monolayer was switched to differentiation medium (culture medium supplemented with 1% (v/v) DMSO). After differentiation, cells were trypsinized using TrypLE (Thermo Fisher Scientific) and seeded at a density of 65,000 cells/well in a 96-well plate (cytotoxicity assay) or 130,000 cells/well in a 24-well plate (CYP activity assay). Cells were allowed to attach for 24 to 48 h. Before exposure, cells were washed with assay medium (culture medium without FBS), after which exposure was started. Cells plated in 96-well plates were exposed to a concentration range (six concentrations in 2x dilution) of five known hepatotoxic compounds for 48 h (single dose). Acetaminophen (CAS 103-90-2; 30 mM) and valproic acid (CAS 1069-66-5; 10 mM) were directly dissolved in assay medium (previously described for each hepatic cell model). […] For the latter, vehicle control (0.5% (v/v) DMSO) was used in the exposure experiments. All chemicals were obtained from Sigma-Aldrich, unless stated otherwise. […] The viability of exposed cells was determined by cellular ATP levels using the CellTiter-Glo Luminescent Cell Viability Assay (Promega, Madison, WI, USA). The CellTiter Glo reagent was prepared according to the manufacturer’s instructions. Briefly, the culture plate was equilibrated at room temperature for 30 min. Medium was removed from the plate, after which phosphate-buffered saline (PBS) and the CellTiter Glo reagent were added to each well in equal volumes. The plate was mixed for 2 min on an orbital shaker and incubated for an additional 10 min at room temperature. Luminescence was measured on the TriStar2 (Berthold Technologies, Bad Wildbad, Germany), and samples were normalized to (vehicle) control.

PHH = assay: Cytotoxicity (CellTiter-Glo ATP viability) in primary human hepatocytes, 48 h exposure; assay type: cell-based; conditions: Hepatocyte
Protocol: LiverPool cryoplateable hepatocytes (pool of 10 donors, mixed gender; BioIVT, Hicksville, NY, USA) were cultured in a collagen I (Sigma-Aldrich, St Louis, MO, USA) sandwich in INVITROGRO CP medium (BioIVT) complemented with the TORPEDO Antibiotic mix (BioIVT). Seeding density was 49,000 cells/well in a 96-well plate (cytotoxicity assay) or 350,000 cells/well in a 24-well plate (CYP activity assay), according to the manufacturer’s instructions. Exposure of the hepatocytes was started 48 h after seeding. For exposure assays, INVITROGRO HI medium (BioIVT) was used, as recommended. Cells plated in 96-well plates were exposed to a concentration range (six concentrations in 2x dilution) of five known hepatotoxic compounds for 48 h (single dose). Acetaminophen (CAS 103-90-2; 30 mM) and valproic acid (CAS 1069-66-5; 10 mM) were directly dissolved in assay medium (previously described for each hepatic cell model). […] For the latter, vehicle control (0.5% (v/v) DMSO) was used in the exposure experiments. All chemicals were obtained from Sigma-Aldrich, unless stated otherwise. […] The viability of exposed cells was determined by cellular ATP levels using the CellTiter-Glo Luminescent Cell Viability Assay (Promega, Madison, WI, USA). The CellTiter Glo reagent was prepared according to the manufacturer’s instructions. Briefly, the culture plate was equilibrated at room temperature for 30 min. Medium was removed from the plate, after which phosphate-buffered saline (PBS) and the CellTiter Glo reagent were added to each well in equal volumes. The plate was mixed for 2 min on an orbital shaker and incubated for an additional 10 min at room temperature. Luminescence was measured on the TriStar2 (Berthold Technologies, Bad Wildbad, Germany), and samples were normalized to (vehicle) control.

HL-ICOs = assay: Cytotoxicity (CellTiter-Glo ATP viability) in hepatocyte-like intrahepatic cholangiocyte organoids, 48 h exposure; assay type: cell-based, human
Protocol: The cell suspension was cultured in MatrigelTM (Corning, New York, NY, USA) droplets in expansion medium (EM) until organoids were formed, as previously described. EM consisted of Advanced DMEM/F12 (Life Technologies) supplemented with 1% (v/v) penicillin-streptomycin (Life Technologies), 1% (v/v) GlutaMax (Life Technologies), 10 mM HEPES (4-(2-hydroxyethyl)-1-piperazineethanesulfonic acid, Life Technologies), 2% (v/v) B27 supplement without vitamin A (Invitrogen, Carlsbad, CA, USA), 1% (v/v) N2 supplement (Invitrogen), 10 mM nicotinamide (Sigma-Aldrich, St Louis, MO, USA), 1.25 mM N-acetylcysteine (Sigma-Aldrich), 10% (v/v) R-spondin-1 conditioned medium (the Rspo1-Fc-expressing cell line was a kind gift from Calvin J. Kuo), 10 μM forskolin (Sigma-Aldrich), 5 μM A83-01 (transforming growth factor beta inhibitor; Tocris Bioscience, Bristol, UK), 50 ng/mL EGF (Invitrogen), 25 ng/mL HGF (Peprotech, Rocky Hill, NJ, USA), 0.1 μg/mL FGF10 (Peprotech) and 10 nM recombinant human ([…])-gastrin I (Sigma-Aldrich). Medium was changed twice a week. Passaging occurred every 7-10 days at ratios ranging between 1:2 and 1:4. All cultures were kept in a humidified atmosphere of 95% air and 5% CO2 at 37 °C. Organoids were primed for differentiation with BMP7 (25 ng/mL, Peprotech) through spiking EM 3 days before shifting to hepatic differentiation medium (DM). DM consisted of EM without R-spondin-1, FGF10, and nicotinamide, supplemented with 100 ng/mL FGF19 (Peprotech), 500 nM A83-01 (Tocris Bioscience), 10 μM DAPT (Selleckchem, Munich, Germany), 25 ng/mL BMP-7 (Peprotech), and […] (Sigma-Aldrich). Organoids were kept on DM for up to 12 days. For exposure experiments, differentiation assay medium was prepared to reduce antioxidants in the medium. This assay medium consisted of DMEM GlutaMAX instead of DMEM-F12 medium complemented with the same components as differentiation medium excluding GlutaMAX, B27, and NAC. In 96-well format (cytotoxicity assay), 12,000 cells in 9 μL Matrigel per well were plated at the start of differentiation, and exposure was started at day 10 of differentiation for 48 h. In 24-well format (CYP activity assay), cells were densely plated in a fresh Matrigel droplet (50 μL) upon the start of differentiation, and cells were exposed to the CYP substrate cocktail on day 12 of differentiation. […] Cells plated in 96-well plates were exposed to a concentration range (six concentrations in 2x dilution) of five known hepatotoxic compounds for 48 h (single dose). Acetaminophen (CAS 103-90-2; 30 mM) and valproic acid (CAS 1069-66-5; 10 mM) were directly dissolved in assay medium (previously described for each hepatic cell model). […] For the latter, vehicle control (0.5% (v/v) DMSO) was used in the exposure experiments. All chemicals were obtained from Sigma-Aldrich, unless stated otherwise. […] The viability of exposed cells was determined by cellular ATP levels using the CellTiter-Glo Luminescent Cell Viability Assay (Promega, Madison, WI, USA). The CellTiter Glo reagent was prepared according to the manufacturer's instructions. Briefly, the culture plate was equilibrated at room temperature for 30 min. Medium was removed from the plate, after which phosphate-buffered saline (PBS) and the CellTiter Glo reagent were added to each well in equal volumes. The plate was mixed for 2 min on an orbital shaker and incubated for an additional 10 min at room temperature. Luminescence was measured on the TriStar2 (Berthold Technologies, Bad Wildbad, Germany), and samples were normalized to (vehicle) control.

[1] = 48 h single dose, median of three independent experiments, minimum and maximum EC50 within brackets
[2] = range of three independent experiments
[3] = PHH (pool of 10 donors, collagen I sandwich), 48 h single dose, cell viability (ATP)
[4] = HL-ICOs, range over the four ICO donors, 48 h
[5] = Homo sapiens, 48 h, HL-ICOs, range over the four ICO donors
[6] = Homo sapiens, HL-ICOs differentiation day 12, ICO donor in first HL-ICO column, 48 h single dose, cell viability (ATP)
[7] = Homo sapiens, HL-ICOs differentiation day 12, ICO donor in fourth HL-ICO column, 48 h single dose, cell viability (ATP)
[8] = Homo sapiens, HL-ICOs differentiation day 12, ICO donor in second HL-ICO column, 48 h single dose, cell viability (ATP)
[9] = Homo sapiens, HL-ICOs differentiation day 12, ICO donor in third HL-ICO column, 48 h single dose, cell viability (ATP)

| Structure (SMILES) | EC50 (HepaRG; [1]) | EC50 (HepaRG; [2]) | EC50 (PHH; [3]) | EC50 (HL-ICOs; [4]) | EC50 (HL-ICOs; [5]) | EC50 (HL-ICOs; [6]) | EC50 (HL-ICOs; [7]) | EC50 (HL-ICOs; [8]) | EC50 (HL-ICOs; [9]) | cytotoxicity (HL-ICOs; HL-ICOs, three ICO donors, up to 31.5 µM, 48 h) | EC50 (PHH; PHH) | EC50 (HL-ICOs; Homo sapiens, 48 h, HL-ICOs, the other three ICO donors, higher than highest tested concentration) |
| --- | --- | --- | --- | --- | --- | --- | --- | --- | --- | --- | --- | --- |
| Cc1c(C)c2c(c(C)c1O)CCC(C)(COc1ccc(CC3SC(=O)NC3=O)cc1)O2 (stereo not shown) [Troglitazone] | 45.1 µM | 14.9 to 45.2 µM | 57.1 µM | 23.1 to 90.8 µM | 23.1 to 90.8 µM | 42.8 µM | 24.4 µM | 90.8 µM | 23.1 µM |  |  |  |
| C1CCC(C(CC2CCCCN2)C2CCCCC2)CC1 (stereo not shown) [Perhexiline] | 26 µM | 10.5 to 26.4 µM | 8.07 µM |  |  | > 31.5 µM | > 31.5 µM | 9.68 µM | > 31.5 µM | no cytotoxicity |  |  |
| CCCC(CCC)C(=O)O [Valproic Acid] | 4580 µM | 4170 to 6070 µM | 9880 µM |  | > 10000 µM | > 10000 µM | > 10000 µM | > 10000 µM | > 10000 µM |  | 9880 µM |  |
| O=C(O)Cc1ccccc1Nc1c(Cl)cccc1Cl [Diclofenac] | 352 µM | 272 to 435 µM | 421 µM |  |  | > 500 µM |  | > 500 µM | > 500 µM |  |  | > 500 µM |
| CC(=O)Nc1ccc(O)cc1 [Acetaminophen] | 4040 µM | 3460 to 6040 µM | 4190 µM | 24000 to 24900 µM | 24000 to 26800 µM | 24900 µM | 24000 µM | 24600 µM | 26800 µM |  | 4190 µM |  |
